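A five-concentration, 48-hour dose response in 96-well plates underlies each endpoint, interpolated linearly between surrounding concentrations. Here, GI50 denotes the concentration required for 50% inhibition of growth. TGI marks complete inhibition of growth.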
Legend:
Assay in all cases: NCI-60 cell line screen, 48 h
[1] = tested on: SF-268 CNS
[2] = tested on: RPMI-8226 leukemia
[3] = tested on: NCI-H460 lung
[4] = tested on: OVCAR-8 ovarian
[5] = tested on: SW-620 colon
[6] = tested on: OVCAR-3 ovarian
[7] = tested on: CCRF-CEM leukemia
[8] = tested on: K-562 leukemia
[9] = tested on: SF-295 CNS
[10] = tested on: HCT-15 colon
[11] = tested on: BT-549 breast
[12] = tested on: A498 renal
[13] = tested on: NCI/ADR-RES ovarian
[14] = tested on: SF-539 CNS
[15] = tested on: MDA-MB-435
[16] = tested on: HOP-62 NSCLC
[17] = tested on: DU-145 prostate
[18] = tested on: NCI-H226 lung
[19] = tested on: SNB-75 CNS
[20] = tested on: 786-0 renal
[21] = tested on: HCT-116 colon
[22] = tested on: KM12 colon
[23] = tested on: PC-3 prostate
[24] = tested on: T-47D breast
[25] = tested on: HCC-2998 colon
[26] = tested on: UACC-62 melanoma
[27] = tested on: CAKI-1 renal
[28] = tested on: MALME-3M melanoma
[29] = tested on: HT29 colon
[30] = tested on: M14 melanoma
[31] = tested on: UO-31 renal
[32] = tested on: SN12C renal
[33] = tested on: SK-MEL-5 melanoma
[34] = tested on: TK-10 renal
[35] = tested on: OVCAR-4 ovarian
[36] = tested on: MOLT-4 leukemia
[37] = tested on: ACHN renal
[38] = tested on: UACC-257 melanoma
[39] = tested on: RXF 393 renal
[40] = tested on: NCI-H522 lung
[41] = tested on: IGROV1 ovarian
[42] = tested on: NCI-H23 lung
[43] = tested on: HS 578T breast
[44] = tested on: HL-60(TB) leukemia
[45] = tested on: SNB-19 CNS
[46] = tested on: OVCAR-5 ovarian
[47] = tested on: SR leukemia
[48] = tested on: COLO 205 colon
[49] = tested on: MDA-MB-231 breast
[50] = tested on: A549 NSCLC
[51] = tested on: SK-OV-3 ovarian
[52] = tested on: MCF7 breast
[53] = tested on: SK-MEL-28 melanoma

In the case of CC(=O)OC1=C2C(CC3C4CC=C5CC(OC(C)=O)CCC5(C)C4CCC23C)C2C(=O)N(Cc3ccccc3)C(=O)C2C1 (stereo unspecified), the GI50 [1] was 19.8 µM, the TGI [1] was greater than 100 µM and the GI50 [2] was 2.78 µM. For the same molecule, the TGI [2] was 9.82 µM, the GI50 [3] was 3.73 µM and the TGI [3] was 31.1 µM. It also gave a GI50 [4] of 6.9 µM, a TGI [4] greater than 100 µM and a GI50 [5] of 12.2 µM. For the same molecule, the TGI [5] was greater than 100 µM, the GI50 [6] was 3.31 µM and the TGI [6] was 12 µM. The GI50 [7] was 3.39 µM, the TGI [7] was greater than 100 µM and the GI50 [8] was 4.33 µM. The TGI [8] was greater than 100 µM, the GI50 [9] was 10.8 µM and the TGI [9] was greater than 100 µM. The GI50 [10] was 3.09 µM, the TGI [10] was greater than 100 µM and the GI50 [11] was 3.53 µM. For the same molecule, the TGI [11] was 13.5 µM, the GI50 [12] was 10.9 µM and the TGI [12] was 43.6 µM. For the same molecule, the GI50 [13] was 5.53 µM, the TGI [13] was 28.2 µM and the GI50 [14] was 3.48 µM. For the same molecule, the TGI [14] was 14.4 µM, the GI50 [15] was 14.5 µM and the TGI [15] was greater than 100 µM. It also gave a GI50 [16] of 35.9 µM, a TGI [16] greater than 100 µM and a GI50 [17] of 32.8 µM. For the same molecule, the TGI [17] was greater than 100 µM, the GI50 [18] was 8.16 µM and the TGI [18] was greater than 100 µM. The GI50 [19] was 5.54 µM, the TGI [19] was 86.5 µM and the GI50 [20] was 20.5 µM. For the same molecule, the TGI [20] was greater than 100 µM, the GI50 [21] was 3.82 µM and the TGI [21] was 17.2 µM. For the same molecule, the GI50 [22] was 5.98 µM, the TGI [22] was 46.8 µM and the GI50 [23] was 4.03 µM. It also gave a TGI [23] greater than 100 µM, a GI50 [24] of 3.12 µM and a TGI [24] of 20.1 µM. The GI50 [25] was 11.4 µM, the TGI [25] was 67 µM and the GI50 [26] was 4.42 µM. For the same molecule, the TGI [26] was 34.3 µM, the GI50 [27] was 4.65 µM and the TGI [27] was greater than 100 µM. It also gave a GI50 [28] of 10.5 µM, a TGI [28] greater than 100 µM and a GI50 [29] of 3.9 µM. For the same molecule, the TGI [29] was 24 µM, the GI50 [30] was 7.77 µM and the TGI [30] was 75.3 µM. It also gave a GI50 [31] of 2.56 µM, a TGI [31] of 8.39 µM and a GI50 [32] of 10.9 µM. The TGI [32] was greater than 100 µM, the GI50 [33] was 2.1 µM and the TGI [33] was 4.79 µM. The GI50 [34] was 47.4 µM, the TGI [34] was greater than 100 µM and the GI50 [35] was 2.33 µM. The TGI [35] was 9.27 µM, the GI50 [36] was 2.93 µM and the TGI [36] was 8.37 µM. For the same molecule, the GI50 [37] was 9.65 µM, the TGI [37] was greater than 100 µM and the GI50 [38] was 10.9 µM. The TGI [38] was greater than 100 µM, the GI50 [39] was 4.34 µM and the TGI [39] was 45.3 µM. For the same molecule, the GI50 [40] was 7.29 µM, the TGI [40] was 58.7 µM and the GI50 [41] was 6.85 µM. For the same molecule, the TGI [41] was greater than 100 µM, the GI50 [42] was 16.6 µM and the TGI [42] was 74 µM. The GI50 [43] was 15.7 µM, the TGI [43] was greater than 100 µM and the GI50 [44] was 3.65 µM. The TGI [44] was 17.8 µM, the GI50 [45] was 9.22 µM and the TGI [45] was greater than 100 µM. It also gave a GI50 [46] of 50.3 µM, a TGI [46] greater than 100 µM and a GI50 [47] of 3.62 µM. It also gave a TGI [47] of 16.6 µM, a GI50 [48] of 8.12 µM and a TGI [48] of 25 µM. The GI50 [49] was 11.1 µM, the TGI [49] was 72.7 µM and the GI50 [50] was 4.33 µM. For the same molecule, the TGI [50] was 34 µM, the GI50 [51] was 17.7 µM and the TGI [51] was greater than 100 µM. The GI50 [52] was 2.71 µM, the TGI [52] was 15 µM and the GI50 [53] was 28.9 µM. For the same molecule, the TGI [53] was greater than 100 µM.

Reference: PubChem BioAssay (NCI)
